Values after ≈ are worked out from the molar mass of the structure shown.
Experiments:
[1] = test system: E. coli NCTC 13441 (UPEC); assay: MIC broth microdilution; type: cell-based, Escherichia coli; details: Escherichia coli, NCTC13441
Experimental: (§1) Minimum Inhibitory Concentrations (MICs) versus planktonic bacteria are determined by the broth microdilution procedure according to the guidelines of the Clinical and Laboratory Standards Institute (Clinical and Laboratory Standards Institute. Methods for Dilution Antimicrobial Susceptibility Tests for Bacteria That Grow Aerobically; Approved Standard-tenth Edition. CLSI document M07-A10, 2015). The broth dilution method involves a two-fold serial dilution of compounds in 96-well microtitre plates, giving a final concentration range of 0.39-200 μM and a maximum final concentration of 2% DMSO. The bacterial strains tested include Escherichia coli K12 (EC), E. coli NCTC 13441 (UPEC), Staphylococcus aureus ATCC 35556 (SA), Acinetobacter baumannii ATCC 17978 (AB), Pseudomonas aeruginosa ATCC 33359 (PA), Enterobacter cloacae DSM 30054 (Ed), Serratia marcescens SL1344 (Sm), Salmonella typhimurium XNAA5 (St), Klebsiella pneumoniae ATCC 10031 (KP2), K. pneumoniae NCTC 13438 (KP1), K. pneumoniae ATCC 700603 (KP3), Klebsiella pneumoniae ATCC 51504 (KP4), K. pneumoniae H154680676 (KP5), K. pneumoniae H154020667 (KP6), K. pneumoniae H154640784 (KP7), K. pneumoniae H154600588 (KP8), K. pneumoniae H154300688 (KP9), K. pneumoniae H151440671 (KP10). Strains are grown in cation-adjusted Müller-Hinton broth or on Luria Bertoni agar at 37° C. in an ambient atmosphere. The MIC is determined as the lowest concentration of compound that inhibits growth following a 20-24 hour incubation period.

[2] = test system: Acinetobacter baumannii ATCC 17978 (AB); assay: MIC broth microdilution; type: cell-based; details: ATCC17978
Experimental: as §1

[3] = test system: Escherichia coli K12 (EC); assay: MIC broth microdilution; type: cell-based
Experimental: as §1

[4] = test system: Klebsiella pneumoniae ATCC 10031 (KP2); assay: MIC broth microdilution; type: cell-based; details: ATCC10031
Experimental: as §1

[5] = test system: Pseudomonas aeruginosa ATCC 33359 (PA); assay: MIC broth microdilution; type: cell-based; details: ATCC33359
Experimental: as §1

[6] = test system: Staphylococcus aureus ATCC 35556 (SA); assay: MIC broth microdilution; type: cell-based; details: ATCC35556
Experimental: as §1

[7] = test system: K. pneumoniae NCTC 13438 (KP1); assay: MIC broth microdilution; type: cell-based, Klebsiella pneumoniae; details: Klebsiella pneumoniae, NCTC13438
Experimental: as §1

[8] = test system: human hepatocarcinoma cell line ATCC HB-8065 (HepG2); assay: Human cell viability (CellTiter-Glo); type: cell-based; details: Homo sapiens; HepG2 cells, 24 h incubation, CellTiter-Glo luminescence, 0.2-100 μM; read-out: IC50 values against the HepG2 cell line
Experimental: Compounds are assessed for potential non-specific cytotoxic effects against the human hepatocarcinoma cell line ATCC HB-8065 (HepG2). HepG2 cells are seeded at 20,000 cells/well in 96-well microtitre plates in minimal essential medium (MEM) supplemented with a final concentration of 10% FBS. After 24 h, compound dilutions are prepared in MEM supplemented with a final concentration of 1% FBS, and added to the cells. Compounds are tested in two-fold serial dilutions over a final concentration range of 0.2-100 μM in a final DMSO concentration of 1% vol/vol. Thioridazine is used as a positive control. Cells are incubated with compound at 37° C. and 5% CO2 for a further 24 h, after which time the CellTiter-Glo reagent (Promega) is added. Luminescence is measured on a Perkin Elmer Envision plate reader. Data are analysed using a 4 parameter logistic regression to determine the concentration of compound that inhibits cell viability by fifty percent (IC50).

Row | SMILES | MIC [1] [µM] | MIC [2] [µM] | MIC [3] [µM] | MIC [4] [µM] | MIC [5] [µM] | MIC [6] [µM] | MIC [7] [µM] | IC50 [8] [µM]
1 | Cc1cc(-c2[nH]c(N)nc2-c2ccc3c(c2)NCC(C)O3)ccn1 (stereo not shown) [Example 34, 4-(2-Methyl-3,4-dihydro-2H-benzo[b][1,4]oxazin-6-yl)-5-(2-methylpyridin-4-yl)-1H-imidazol-2-amine] | 1 to 10 (≈ 0.321 to 3.21 µg/mL) | > 100 | 1 to 10 (≈ 0.321 to 3.21 µg/mL) | ≤ 1 | > 100 | > 100 | 1 to 10 (≈ 0.321 to 3.21 µg/mL) | > 100
2 | Cc1cc(-c2[nH]c(N)nc2-c2ccc(OCC#N)cc2)ccn1 [Example 35, 2-(4-(2-Amino-5-(2-methylpyridin-4-yl)-1H-imidazol-4-yl)phenoxy)acetonitrile] | 1 to 10 (≈ 0.305 to 3.05 µg/mL) | > 100 | 1 to 10 (≈ 0.305 to 3.05 µg/mL) | ≤ 1 | > 100 | > 100 | 10 to 100 (≈ 3.05 to 30.5 µg/mL) | > 100
3 | Cc1cc(-c2[nH]c(N)nc2-c2ccc3c(c2)NCCO3)cc(C)n1 [Example 36, 4-(3,4-Dihydro-2H-benzo[b][1,4]oxazin-6-yl)-5-(2,6-dimethylpyridin-4-yl)-1H-imidazol-2-amine] | ≤ 1 | > 100 | 1 to 10 (≈ 0.321 to 3.21 µg/mL) | ≤ 1 | > 100 | > 100 | 1 to 10 (≈ 0.321 to 3.21 µg/mL) | > 100
4 | Cc1cc(-c2[nH]c(N)nc2-c2ccc3oc(C)nc3c2)ccn1 [Example 37, 4-(2-Methylbenzo[d]oxazol-5-yl)-5-(2-methylpyridin-4-yl)-1H-imidazol-2-amine] | 1 to 10 (≈ 0.305 to 3.05 µg/mL) | > 100 | 1 to 10 (≈ 0.305 to 3.05 µg/mL) | ≤ 1 | > 100 | > 100 | 10 to 100 (≈ 3.05 to 30.5 µg/mL) | > 100
5 | Nc1nc(-c2ccc3c(c2)CCO3)c(-c2ccncc2)[nH]1 [Example 38, 4-(2,3-Dihydrobenzofuran-5-yl)-5-(pyridin-4-yl)-1H-imidazol-2-amine] | ≤ 1 | > 100 | ≤ 1 | ≤ 1 | > 100 | > 100 | 1 to 10 (≈ 0.278 to 2.78 µg/mL) | > 100
6 | Nc1nc(-c2ccc3c(c2)NCCO3)c(-c2ccncc2)[nH]1 [Example 39, 4-(3,4-Dihydro-2H-benzo[b][1,4]oxazin-6-yl)-5-(pyridin-4-yl)-1H-imidazol-2-amine] | ≤ 1 | > 100 | ≤ 1 | ≤ 1 | > 100 | > 100 | 10 to 100 (≈ 2.93 to 29.3 µg/mL) | > 100
7 | CNc1cc(-c2[nH]c(N)nc2-c2ccc3c(c2)NCCO3)ccn1 [Example 40, 4-(2-Amino-4-(3,4-dihydro-2H-benzo[b][1,4]oxazin-6-yl)-1H-imidazol-5-yl)-N-methylpyridin-2-amine] | ≤ 1 | > 100 | 1 to 10 (≈ 0.322 to 3.22 µg/mL) | ≤ 1 | > 100 | > 100 | 1 to 10 (≈ 0.322 to 3.22 µg/mL) | > 100
8 | Nc1cc(-c2[nH]c(N)nc2-c2ccc3c(c2)NCCO3)ccn1 [Example 42, 4-(2-Amino-4-(3,4-dihydro-2H-benzo[b][1,4]oxazin-6-yl)-1H-imidazol-5-yl)pyridin-2-amine] | 1 to 10 (≈ 0.308 to 3.08 µg/mL) | > 100 | 1 to 10 (≈ 0.308 to 3.08 µg/mL) | ≤ 1 | > 100 | > 100 | 10 to 100 (≈ 3.08 to 30.8 µg/mL) | > 100
9 | Cc1cc(-c2[nH]c(N)nc2-c2ccc3c(c2)N(C)CCO3)ccn1 [Example 44, 4-(4-Methyl-3,4-dihydro-2H-benzo[b][1,4]oxazin-6-yl)-5-(2-methylpyridin-4-yl)-1H-imidazol-2-amine] | 1 to 10 (≈ 0.321 to 3.21 µg/mL) | > 100 | 1 to 10 (≈ 0.321 to 3.21 µg/mL) | ≤ 1 | > 100 | > 100 | 1 to 10 (≈ 0.321 to 3.21 µg/mL) | > 100
10 | Nc1nc(-c2ccc3c(c2)NCCO3)c(-c2ccnc(C(F)(F)F)c2)[nH]1 [Example 46, 4-(3,4-Dihydro-2H-benzo[b][1,4]oxazin-6-yl)-5-(2-(trifluoromethyl)pyridin-4-yl)-1H-imidazol-2-amine] | 1 to 10 (≈ 0.361 to 3.61 µg/mL) | > 100 | 1 to 10 (≈ 0.361 to 3.61 µg/mL) | ≤ 1 | > 100 | > 100 | 10 to 100 (≈ 3.61 to 36.1 µg/mL) | > 100
11 | Nc1nc(-c2ccc3c(c2)NCCO3)c(-c2ccnc(F)c2)[nH]1 [Example 47, 4-(3,4-Dihydro-2H-benzo[b][1,4]oxazin-6-yl)-5-(2-fluoropyridin-4-yl)-1H-imidazol-2-amine] | 1 to 10 (≈ 0.311 to 3.11 µg/mL) | > 100 | 1 to 10 (≈ 0.311 to 3.11 µg/mL) | ≤ 1 | > 100 | > 100 | 10 to 100 (≈ 3.11 to 31.1 µg/mL) | > 100
12 | Cc1cc(-c2[nH]c(N)nc2-c2ccc3c(c2)NCCCO3)ccn1 [Example 48, 5-(2-Methylpyridin-4-yl)-4-(2,3,4,5-tetrahydrobenzo[b][1,4]oxazepin-7-yl)-1H-imidazol-2-amine] | 1 to 10 (≈ 0.321 to 3.21 µg/mL) | > 100 | 1 to 10 (≈ 0.321 to 3.21 µg/mL) | ≤ 1 | > 100 | > 100 | 10 to 100 (≈ 3.21 to 32.1 µg/mL) | > 100
13 | Cc1cc(-c2[nH]c(N)nc2-c2cc(F)c3c(c2)NC(=O)CO3)ccn1 [Example 50, 6-(2-Amino-5-(2-methylpyridin-4-yl)-1H-imidazol-4-yl)-8-fluoro-2H-benzo[b][1,4]oxazin-3(4H)-one] | 1 to 10 (≈ 0.339 to 3.39 µg/mL) | > 100 | 1 to 10 (≈ 0.339 to 3.39 µg/mL) | ≤ 1 | > 100 | > 100 | 10 to 100 (≈ 3.39 to 33.9 µg/mL) | > 100
14 | Cc1cc(-c2[nH]c(N)nc2-c2ccc3c(c2)NC(=O)CO3)ccn1 [Example 51, 6-(2-Amino-5-(2-methylpyridin-4-yl)-1H-imidazol-4-yl)-2H-benzo[b][1,4]oxazin-3(4H)-one] | 1 to 10 (≈ 0.321 to 3.21 µg/mL) | > 100 | 1 to 10 (≈ 0.321 to 3.21 µg/mL) | ≤ 1 | > 100 | > 100 | 10 to 100 (≈ 3.21 to 32.1 µg/mL) | > 100

From US11345694B2, “Antibacterial compounds” (DISCUVA LTD., priority 2017, dated 2022)
